Measurements published in patent publication US11111245B2, “Derivatives of N-cycloalkyl/heterocycloalkyl-4-(imidazo[1,2-a]pyridine)pyrimidin-2-amine as therapeutic agents” (Aucentra Therapeutics Pty Ltd, priority 2017, dated 2021).

Experiments:
CDK4/D1 = CDK4/D1 (Homo sapiens, UniProt P11802); assay: ADP Glo Kinase assay CDK4/D1; assay type: biochemical; details: CDK4D1; compound at 10 μM; read-out: residual activity (%) at 10 μM CDK4D1
Method: (§1) Eurofins Pharma Discovery or Reaction Biology Corporation Kinase Profiler services were used to measure inhibition of CDKs and other kinases by radiometric assay. Inhibition of CDK4/D1, CDK6/D3 and CDK9/T1 were also determined in-house using ADP Glo Kinase assays (Promega Corporation, Madison, USA). Briefly, the kinase reaction for CDK4/D1 and CDK6/D3 was performed with kinase reaction buffer ([…] Tris base pH 7.5, 20 mM MgCl2, 0.4 mM DTT), 0.1 mg/ml BSA and RB-CTF substrate (retinoblastoma protein 1 C-terminal fraction). For CDK9/CyclinT1, the kinase reaction was performed with standard assay buffer and Kinase Dilution Buffer and RBER-IRStide substrate. Serial dilutions of 1:3 were prepared for test compounds for 10 concentrations (from 10 μM to 0.5 nM). The kinase reactions were started by addition of ATP, incubated for 40 min at 37° C. and then stopped by adding 10 μL of ADP Glo reagent. After incubation at room temperature in the dark for 40 min, 20 μL of kinase detection reagent was added per well and incubated for 40 min. Luminescence was measured using an EnVision Multilabel plate reader (PerkinElmer, Buckinghamshire, UK). Positive and negative controls were performed in the presence and absence of CDK kinases, respectively. Half-maximal inhibition (IC50) values were calculated using a 4-parameter logistic non-linear regression model with Graphpad prism (Version 6.0). Apparent inhibition constants (Ki) values were calculated from Km (ATP) and IC50 values for the respective kinases.

CDK9/T1 = CDK9/T1 (Homo sapiens, UniProt P50750); assay: ADP Glo Kinase assay CDK9/T1; assay type: biochemical; details: CDK9T1; read-out: CDK inhibition, Ki (μM) CDK9T1
Method: as §1

CDKs and other kinases [1] = molecular target: T1, CDKs and other kinases (Homo sapiens, UniProt P06493); assay: Radiometric kinase assay (Eurofins Pharma Discovery or Reaction Biology Corporation Kinase Profiler); assay type: biochemical; details: CDK1B; for remaining activity at 10 µM: compound at 10 μM, read-out: residual activity (%) at 10 μM CDK1B; for Ki: read-out: CDK inhibition, Ki (μM) CDK1B
T1 construct: other: CDK1B; residual activity (%) at 10 μM CDK1B; compound at 10 μM
Method: as §1

CDKs and other kinases [2] = molecular target: T2, CDKs and other kinases (Homo sapiens, UniProt P24941); assay: as above; assay type: biochemical; details: CDK2A; for remaining activity at 10 µM: compound at 10 μM, read-out: residual activity (%) at 10 μM CDK2A; for Ki: read-out: CDK inhibition, Ki (μM) CDK2A
T2 construct: other: CDK2A; residual activity (%) at 10 μM CDK2A; compound at 10 μM
Method: as §1

CDKs and other kinases [3] = molecular target: T3, CDKs and other kinases (Homo sapiens, UniProt P50613); assay: as above; assay type: biochemical; details: CDK7H; for Ki: read-out: CDK inhibition, Ki (μM) CDK7H; for remaining activity at 10 µM: compound at 10 μM, read-out: residual activity (%) at 10 μM CDK7H
T3 construct: other: CDK7H; residual activity (%) at 10 μM CDK7H; compound at 10 μM
Method: as §1

leukemia cell lines = assay: Resazurin cell viability assay on leukemia cell lines (72 h growth inhibition, GI50); assay type: cell-based; details: Homo sapiens, MV4-11 cells
Method: Compounds from Example 1 were subjected to a standard MTT (3-(4,5-dimethylthiazol-2-yl)-2,5-diphenyltetrazolium bromide) and resazurin assays on solid tumour cell lines and leukemia cell lines, respectively, as previously reported (Wang S et al., J Med Chem 47:1662-1675, 2004 and Diab S. et al. CheMedChem 9:962-972, 2014). Compound concentrations required to inhibit 50% of cell growth (GI50) were calculated using non-linear regression analysis.

T1 sequence (P06493 whole entry): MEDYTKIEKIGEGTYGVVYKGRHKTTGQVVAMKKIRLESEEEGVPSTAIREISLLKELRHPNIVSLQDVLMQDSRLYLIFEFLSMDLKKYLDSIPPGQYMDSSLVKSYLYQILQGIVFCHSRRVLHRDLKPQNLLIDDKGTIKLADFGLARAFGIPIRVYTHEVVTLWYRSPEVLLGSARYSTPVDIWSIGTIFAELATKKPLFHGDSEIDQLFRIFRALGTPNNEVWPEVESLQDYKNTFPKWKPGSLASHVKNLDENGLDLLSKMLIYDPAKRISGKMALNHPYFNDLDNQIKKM
CDK4/D1, sequence (P11802 whole entry): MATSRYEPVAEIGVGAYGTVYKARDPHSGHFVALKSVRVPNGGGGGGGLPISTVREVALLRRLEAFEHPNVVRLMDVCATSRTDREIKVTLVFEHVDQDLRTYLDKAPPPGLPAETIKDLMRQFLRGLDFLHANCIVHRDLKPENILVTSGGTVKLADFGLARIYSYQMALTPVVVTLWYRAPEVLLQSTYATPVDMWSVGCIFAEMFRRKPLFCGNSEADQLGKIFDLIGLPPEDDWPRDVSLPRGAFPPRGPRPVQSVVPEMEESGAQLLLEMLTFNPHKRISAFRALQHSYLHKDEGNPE
CDK4/D1, sequence (P24385 whole entry partner): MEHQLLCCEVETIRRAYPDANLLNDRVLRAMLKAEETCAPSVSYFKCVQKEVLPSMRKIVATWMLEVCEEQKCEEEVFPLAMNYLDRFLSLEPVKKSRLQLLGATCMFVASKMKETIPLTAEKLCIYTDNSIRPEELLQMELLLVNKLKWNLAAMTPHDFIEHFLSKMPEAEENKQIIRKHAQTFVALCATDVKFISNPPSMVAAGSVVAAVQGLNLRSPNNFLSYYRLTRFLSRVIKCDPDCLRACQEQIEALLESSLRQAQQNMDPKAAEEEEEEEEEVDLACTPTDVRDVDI
T3 sequence (P50613 whole entry): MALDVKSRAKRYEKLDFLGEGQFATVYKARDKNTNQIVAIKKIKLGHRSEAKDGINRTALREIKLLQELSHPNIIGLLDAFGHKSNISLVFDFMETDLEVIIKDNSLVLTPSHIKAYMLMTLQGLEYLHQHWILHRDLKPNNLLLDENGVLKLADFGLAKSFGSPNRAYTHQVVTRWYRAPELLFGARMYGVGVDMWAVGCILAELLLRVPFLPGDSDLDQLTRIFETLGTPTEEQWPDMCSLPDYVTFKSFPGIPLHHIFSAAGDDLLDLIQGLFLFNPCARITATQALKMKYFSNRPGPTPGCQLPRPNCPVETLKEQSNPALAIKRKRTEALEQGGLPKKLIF
CDK9/T1, sequence (P50750 whole entry): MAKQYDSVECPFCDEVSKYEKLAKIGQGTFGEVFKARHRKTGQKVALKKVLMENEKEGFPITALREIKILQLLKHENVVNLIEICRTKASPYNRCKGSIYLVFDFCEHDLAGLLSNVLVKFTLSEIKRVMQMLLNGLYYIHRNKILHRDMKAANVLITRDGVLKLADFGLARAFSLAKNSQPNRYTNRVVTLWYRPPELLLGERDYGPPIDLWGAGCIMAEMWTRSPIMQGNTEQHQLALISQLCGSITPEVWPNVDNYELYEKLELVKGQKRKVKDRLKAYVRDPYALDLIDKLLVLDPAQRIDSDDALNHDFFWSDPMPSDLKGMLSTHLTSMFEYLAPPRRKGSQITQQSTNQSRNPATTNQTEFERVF
CDK9/T1, sequence (O60563 whole entry partner): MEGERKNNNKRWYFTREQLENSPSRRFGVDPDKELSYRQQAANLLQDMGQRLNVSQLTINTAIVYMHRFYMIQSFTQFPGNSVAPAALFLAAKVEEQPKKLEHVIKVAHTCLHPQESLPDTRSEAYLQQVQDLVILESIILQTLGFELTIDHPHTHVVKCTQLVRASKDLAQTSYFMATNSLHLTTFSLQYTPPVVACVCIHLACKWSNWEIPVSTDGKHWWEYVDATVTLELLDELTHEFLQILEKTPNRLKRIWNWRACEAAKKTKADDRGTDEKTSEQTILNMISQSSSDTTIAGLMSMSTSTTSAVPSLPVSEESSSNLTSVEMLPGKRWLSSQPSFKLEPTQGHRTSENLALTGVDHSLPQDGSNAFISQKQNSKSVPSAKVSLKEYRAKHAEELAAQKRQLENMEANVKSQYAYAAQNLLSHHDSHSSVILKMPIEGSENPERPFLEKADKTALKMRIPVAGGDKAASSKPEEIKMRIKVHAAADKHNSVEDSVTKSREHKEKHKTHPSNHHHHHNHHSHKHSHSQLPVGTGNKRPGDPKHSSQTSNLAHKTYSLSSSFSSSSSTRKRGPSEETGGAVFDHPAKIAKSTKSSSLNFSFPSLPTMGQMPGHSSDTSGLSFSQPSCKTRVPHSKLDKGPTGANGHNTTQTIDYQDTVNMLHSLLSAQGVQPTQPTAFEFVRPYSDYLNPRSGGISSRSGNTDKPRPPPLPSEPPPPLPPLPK

Row | SMILES | remaining activity at 10 µM (CDK4/D1) | Ki (CDK9/T1) | remaining activity at 10 µM (CDKs and other kinases [1]) | remaining activity at 10 µM (CDKs and other kinases [2]) | Ki (CDKs and other kinases [3]) | GI50 (leukemia cell lines) | Ki (CDKs and other kinases [1]) | Ki (CDKs and other kinases [2]) | remaining activity at 10 µM (CDKs and other kinases [3])
1 | Fc1cnc(NC2CCNCC2)nc1-c1cnc2ccc(-c3ccccc3)cn12 [Compound 143, 5-Fluoro-4-(6-phenylimidazo[1,2-a]pyridin-3-yl)-N-(piperidin-4-yl)pyrimidin-2-amine] | 4% | 0.108 µM | 3% | 4% | 0.088 µM | 0.003 ± 0.001 µM |  |  | 
2 | CN1CCC(Nc2ncc(F)c(-c3cnc4ccc(-c5ccccc5)cn34)n2)CC1 [Compound 144, 5-Fluoro-N-(1-Methylpiperidin-4-yl)-4-(6-phenylimidazo [1,2-a]pyridin-3-yl)pyrimidin-2-amine] | 20% | 0.138 µM |  | 8% | 0.072 µM | 0.005 ± 0.003 µM | 0.047 µM |  | 
3 | CS(=O)(=O)N1CCC(Nc2ncc(F)c(-c3cnc4ccc(-c5ccccc5)cn34)n2)CC1 [Compound 147, 5-Fluoro-N-(1-(methylsulfonyl)piperidin-4-yl)-4-(6-phenylimidazo[1,2-a]pyridin-3-yl)pyrimidin-2-amine] | 70% | 0.711 µM |  |  |  | 0.62 ± 0.26 µM | 0.334 µM | 0.015 µM | 54%
4 | CN1CCC(Nc2ncc(F)c(-c3cnc4ccc(-c5ccc(S(=O)(=O)N(C)C)cc5)cn34)n2)CC1 [Compound 148, 4-(3-(5-Fluoro-2-((1-methylpiperidin-4-yl)amino)pyrimidin-4-yl)imidazo[1,2-a]pyridin-6-yl)-N,N-dimethylbenzenesulfonamide] | 70% | 0.261 µM | 27% | 46% |  | 0.023 ± 0.007 µM |  |  | 18%
5 | CN1CCC(Nc2ncc(F)c(-c3cnc4ccc(Nc5cncnc5)cn34)n2)CC1 [Compound 149, 3-(5-Fluoro-2-((1-methylpiperidin-4-yl)amino)pyrimidin-4-yl)-N-(pyrimidin-5-yl)imidazo[1,2-a]pyridin-6-amine] | 3% | 0.178 µM | 9% | 20% | 0.313 µM | 0.145 ± 0.001 µM |  |  | 
6 | Cc1cnc(N[C@H]2CC[C@H](N)CC2)nc1-c1cnc2cc(C(F)(F)F)c(-c3ccccc3)cn12 [Compound 150, (1r,4r)-N1-(5-Methyl-4-(6-phenyl-7-(trifluoromethyl)imidazo[1,2-a]pyridin-3-yl)pyrimidin-2-yl)cyclohexane-1,4-diamine] | 21% | 0.149 µM | 45% | 11% | 0.372 µM | 0.42 ± 0.02 µM |  |  | 
7 | Cc1cnc(N[C@H]2CC[C@H](C)CC2)nc1-c1cnc2ccc(Nc3cncnc3)cn12 [Compound 152, 3-(5-Methyl-2-(((1r,4r)-4-methylcyclohexyl)amino)pyrimidin-4-yl)-N-(pyrimidin-5-yl)imidazo[1,2-a]pyridin-6-amine] | 20% | 0.181 µM | 34% | 5% |  | 2.86 ± 0.29 µM |  |  | 55%
8 | Cc1cnc(N[C@H]2CC[C@H](NCC(N)=O)CC2)nc1-c1cnc2ccc(Nc3cncnc3)cn12 [Compound 153, 2-(((1r,4r)-4-((5-Methyl-4-(6-(pyrimidin-5-ylamino)imidazo[1,2-a]pyridin-3-yl)pyrimidin-2-yl)amino)cyclohexyl)amino)acetamide] | 0% | 0.01 µM |  | 14% |  | 9.32 ± 0.73 µM | 0.632 µM |  | 49%
9 | Cc1cnc(N[C@H]2CC[C@H](N(CC(N)=O)CC(N)=O)CC2)nc1-c1cnc2ccc(Nc3cncnc3)cn12 [Compound 154, 2,2′-(((1r,4r)-4-((5-Methyl-4-(6-(pyrimidin-5-ylamino)imidazo[1,2-a]pyridin-3-yl)pyrimidin-2-yl)amino)cyclohexyl)azanediyl)diacetamide] | 3% | 0.022 µM | 14% | 7% |  | > 10 µM |  |  | 37%
10 | Cc1cnc(NC2CCC(F)(F)CC2)nc1-c1cnc2ccccn12 [Compound 156, N-(4,4-Difluorocyclohexyl)-4-(imidazo[1,2-a]pyridin-3-yl)-5-methylpyrimidin-2-amine] | 51% | > 5 µM | 77% | 34% |  | 3.3 ± 0.31 µM |  |  | 80%

Second part, the compound after the results:

Row | remaining activity at 10 µM (CDK4/D1) | Ki (CDK9/T1) | remaining activity at 10 µM (CDKs and other kinases [1]) | remaining activity at 10 µM (CDKs and other kinases [2]) | Ki (CDKs and other kinases [3]) | GI50 (leukemia cell lines) | Ki (CDKs and other kinases [1]) | Ki (CDKs and other kinases [2]) | remaining activity at 10 µM (CDKs and other kinases [3]) | SMILES
11 | 7% | 0.003 µM | 3% | 0% | 0.04 µM | < 0.01 µM |  |  |  | Fc1cnc(N[C@H]2CC[C@H](N3CCCC3)CC2)nc1-c1cnc2ccc(-c3ccccc3)cn12 [Compound 137, 5-Fluoro-4-(6-phenylimidazo[1,2-a]pyridin-3-yl)-N-((1r,4r)-4-(pyrrolidin-1-yl)cyclohexyl)pyrimidin-2-amine]
12 | 6% | 0.006 µM |  |  |  | < 0.001 µM | 0.076 µM | 0.111 µM | 0% | Fc1cnc(N[C@H]2CC[C@H](N3CCC3)CC2)nc1-c1cnc2ccc(-c3ccccc3)cn12 [Compound 138, N-((1r,4r)-4-(Azetidin-1-yl)cyclohexyl)-5-fluoro-4-(6-phenylimidazo[1,2-a]pyridin-3-yl)pyrimidin-2-amine]
13 | 65% | 0.53 µM | 39% | 61% | 0.597 µM | 0.242 ± 0.132 µM |  |  |  | Cc1cnc(N[C@H]2CC[C@H](N3CCCC3)CC2)nc1-c1cnc2ccc(-c3ccccc3)cn12 [Compound 140, 5-Methyl-4-(6-phenylimidazo[1,2-a]pyridin-3-yl)-N-((1r,4r)-4-(pyrrolidin-1-yl)cyclohexyl)pyrimidin-2-amine]
14 | 8% | 0.025 µM | 23% | 15% |  | 0.064 ± 0.017 µM |  |  | 39% | Cc1cnc(N[C@H]2CC[C@H](N3CCCC3)CC2)nc1-c1cnc2ccc(Nc3cncnc3)cn12 [Compound 142, 3-(5-Methyl-2-(((1r,4r)-4-(pyrrolidin-1-yl)cyclohexyl)amino)pyrimidin-4-yl)-N-(pyrimidin-5-yl)imidazo [1,2-a]pyridin-6-amine]
15 | 34% | 1.82 µM | 16% | 34% | 0.37 µM | 0.026 ± 0.003 µM |  |  |  | Fc1cnc(NC2CCN(CC3CCCC3)CC2)nc1-c1cnc2ccc(-c3ccccc3)cn12 [Compound 146, N-(1-(Cyclopentylmethyl)piperidin-4-yl)-5-fluoro-4-(6-phenylimidazo[1,2-a]pyridin-3-yl)pyrimidin-2-amine]
16 | 93% | > 5 µM | 96% | 87% |  | 8.643 ± 0.01 µM |  |  | 94% | Cc1cnc(N[C@H]2CC[C@H](C)CC2)nc1-c1cnc2ccc(-c3ccccc3)cn12 [Compound 151, 5-Methyl-N-((1r,4r)-4-methylcyclohexyl)-4-(6-phenylimidazo[1,2-a]pyridin-3-yl)pyrimidin-2-amine]
17 | 96% | > 5 µM | 100% | 100% |  | 7 ± 2.03 µM |  |  | 99% | Cc1cnc(NC2CCC(F)(F)CC2)nc1-c1cnc2ccc(-c3ccccc3)cn12 [Compound 155, N-(4,4-Difluorocyclohexyl)-5-methyl-4-(6-phenylimidazo [1,2-a]pyridin-3-yl)pyrimidin-2-amine]
